Here are results for 29 compounds from patent publication US9815846B2 (Merck Sharp & Dohme Corp., priority 2014, dated 2017).

In general, IC50 refers to the midpoint of a concentration-inhibition curve.

The target of the experiment is human TrkA receptor (Homo sapiens (Human), UniProt P04629). The experiment can be described thus: DiscoverX PathHunter TrkA functional assay (NGF-stimulated U2OS cells). In kind it is cell-based. The note with it: U2OS cells expressing human TrkA-PK, Shc1-EA and p75NTR; compound 1 h, then NGF at ~80% of maximal response for 3 h; luminescence.
human TrkA receptor, sequence (P04629 33-796): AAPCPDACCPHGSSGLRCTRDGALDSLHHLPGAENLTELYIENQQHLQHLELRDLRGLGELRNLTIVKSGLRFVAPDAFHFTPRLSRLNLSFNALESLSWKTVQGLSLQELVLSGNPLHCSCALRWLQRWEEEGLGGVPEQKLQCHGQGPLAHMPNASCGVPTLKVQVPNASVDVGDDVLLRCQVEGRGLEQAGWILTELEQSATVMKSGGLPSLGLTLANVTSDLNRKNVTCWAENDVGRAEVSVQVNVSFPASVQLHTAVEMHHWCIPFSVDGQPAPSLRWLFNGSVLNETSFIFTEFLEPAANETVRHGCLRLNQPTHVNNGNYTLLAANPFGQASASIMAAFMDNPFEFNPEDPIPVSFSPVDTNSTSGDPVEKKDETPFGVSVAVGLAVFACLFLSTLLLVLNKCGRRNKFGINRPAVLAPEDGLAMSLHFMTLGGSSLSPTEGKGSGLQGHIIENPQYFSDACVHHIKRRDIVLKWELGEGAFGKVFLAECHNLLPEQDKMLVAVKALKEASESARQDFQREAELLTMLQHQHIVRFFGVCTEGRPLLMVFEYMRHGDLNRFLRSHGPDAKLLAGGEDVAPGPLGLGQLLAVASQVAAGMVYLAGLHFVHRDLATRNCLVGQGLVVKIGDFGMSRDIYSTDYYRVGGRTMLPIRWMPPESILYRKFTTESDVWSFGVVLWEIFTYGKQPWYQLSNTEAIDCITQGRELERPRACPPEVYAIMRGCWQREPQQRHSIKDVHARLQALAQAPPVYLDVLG
Protocol: TrkA functional activity was measured using a DiscoverX PathHunter assay. In this assay, U2OS cells express the human TrkA receptor as a fusion with the weakly complementing fragment of B-galactosidase, which DiscoverX calls “Prolink (PK)”; additionally, Shcl is fused with a larger fragment, which is called “Enzyme Acceptor (EA)”. Activation of the TrkA receptor, upon NGF addition, results in the kinase domain being phosphorylated, resulting in subsequent recruitment of Shcl-EA protein. That recruitment results in an active B-galactosidase enzyme that is detected by addition of a chemiluminescent substrate. The human p75^NTR protein was also expressed as a co-receptor for NGF.
All reagents were purchased from DiscoverX, except for the receptor agonists (NGF, BDNF, NT3) which were purchased from Peprotech. Cells were expanded and frozen into cryovials, and stored in the vapor phase of liquid nitrogen, and thawed immediately before use. Thawed cells were added to a 384-well plate at 7500 cells/well, and allowed to incubate overnight. Compound at various concentrations was added the following morning and allowed to incubate on cells for 1 h. Then, NGF was added at a concentration sufficient to elicit ˜80% of a maximal response and allowed to incubate for 3 h at ambient temperature. DiscoverX PathHunter detection reagent was then added and the plate was further incubated for 1 h in the dark. The plate was then read via luminescence on the Perkin Elmer Envision.
In turn, `Cc1ncc(NC(=O)c2ccc(C(F)(F)F)c(-n3nccn3)c2)c(-c2ccccc2)n1` [Example 16, N-(2-methyl-4-phenylpyrimidin-5-yl)-3-(2H-1,2,3-triazol-2-yl)-4-(trifluoromethyl)benzamide] registered an IC50 of 66 nM.

Regarding `C[C@H](O)C(=O)N(C)Cc1ccc(NC(=O)c2cc(-c3ccn(C)n3)c(C(F)(F)F)cc2F)c(-c2ccccc2)n1` [Example 72, (S)-2-fluoro-N-(6-((2-hydroxy-N-methylpropanamido)methyl)-2-phenylpyridin-3-yl)-5-(1-methyl-1H-pyrazol-3-yl)-4-(trifluoromethyl)benzamide], the IC50 turned out to be 0.57 nM.

On to `Cn1ccc(-c2cc(C(=O)Nc3cnc(CN4CCCC4=O)nc3-c3ccccc3)c(F)cc2C(F)(F)F)n1` [Example 219, 2-fluoro-5-(1-methyl-1H-pyrazol-3-yl)-N-(2-((2-oxopyrrolidin-1-yl)methyl)-4-phenylpyrimidin-5-yl)-4-(trifluoromethyl)benzamide], for which the IC50 was 0.32 nM.

Regarding `Cc1cc(C)n(-c2cc(C(=O)Nc3cnc(C)nc3-c3ccccc3)ccc2F)n1` [Example 13, 3-(3,5-dimethyl-1H-pyrazol-1-yl)-4-fluoro-N-(2-methyl-4-phenylpyrimidin-5-yl)benzamide], the IC50 was found to be 910 nM.

Compound `C[C@@H](CO)NC(=O)c1cnc(-c2ccccc2)c(NC(=O)c2cc(-c3ccn(C)n3)c(C(F)(F)F)cc2F)c1` [Example 85, (S)-5-(2-fluoro-5-(1-methyl-1H-pyrazol-3-yl)-4-(trifluoromethyl)benzamido)-N-(1-hydroxypropan-2-yl)-6-phenylnicotinamide] showed an IC50 of 0.58 nM. This IC50 is about 1600-fold lower than that of the compound before.

Compound `Cc1ncc(NC(=O)c2ccc(C(F)(F)F)c(-c3cscn3)c2)c(-c2ccccc2)n1` [Example 12, N-(2-methyl-4-phenylpyrimidin-5-yl)-3-(1,3-thiazol-4-yl)-4-(trifluoromethyl)benzamide] displayed a 50% inhibitory concentration (IC50) of 36 nM.

Compound `O=C(Nc1cc(-c2csc(C3CC3)n2)cnc1N1CCC[C@@H]1CO)c1cc(-c2ncccn2)c(C(F)(F)F)cc1F` [Example 137, (R)—N-(5-(2-Cyclopropylthiazol-4-yl)-2-(2-(hydroxymethyl)pyrrolidin-1-yl)pyridin-3-yl)-2-fluoro-5-(pyrimidin-2-yl)-4-(trifluoromethyl)benzamide] registered an IC50 of 2.9 nM.

In turn, `Cc1cc(-c2ccccc2NC(=O)c2cc(-n3nc(C)cc3C)ccc2Cl)on1` [Example 11, 2-chloro-5-(3,5-dimethyl-1H-pyrazol-1-yl)-N-[2-(3-methylisoxazol-5-yl)phenyl]benzamide] had an IC50 of 7500 nM. Against the preceding compound, the IC50 is about 2600-fold higher.

Take `Cn1ccc(-c2cc(C(=O)Nc3cnc(CC(=O)NC4CCC4)nc3-c3ccccc3)c(F)cc2C(F)(F)F)n1` [Example 113, N-(2-(2-(cyclobutylamino)-2-oxoethyl)-4-phenylpyrimidin-5-yl)-2-fluoro-5-(1-methyl-1H-pyrazol-3-yl)-4-(trifluoromethyl)benzamide]: the IC50 was determined as 1.3 nM.

The compound `Cn1ccc(-c2cc(C(=O)Nc3cnc(CC(=O)NCCO)nc3-c3ccccc3)c(F)cc2C(F)(F)F)n1` [Example 108, 2-fluoro-N-(2-(2-((2-hydroxyethyl)amino)-2-oxoethyl)-4-phenylpyrimidin-5-yl)-5-(1-methyl-1H-pyrazol-3-yl)-4-(trifluoromethyl)benzamide] yielded an IC50 of 1.5 nM.

For the compound `Cn1ccc(-c2cc(C(=O)Nc3cnc(CC#N)nc3-c3ccccc3)c(F)cc2C(F)(F)F)n1` [Example 34, N-(2-(cyanomethyl)-4-phenylpyrimidin-5-yl)-2-fluoro-5-(1-methyl-1H-pyrazol-3-yl)-4-(trifluoromethyl)benzamide], half-maximal inhibition (IC50) required 0.69 nM. This IC50 is about 2.2-fold lower than that of the compound before.

In the case of `CS(=O)(=O)N1CCc2nc(-c3ccccc3)c(NC(=O)c3cc(-c4ncccn4)c(C(F)(F)F)cc3F)cc2C1` [Example 149, 2-fluoro-N-(6-(methylsulfonyl)-2-phenyl-5,6,7,8-tetrahydro-1,6-naphthyridin-3-yl)-5-(pyrimidin-2-yl)-4-(trifluoromethyl)benzamide], half-maximal inhibition (IC50) required 11 nM.

In turn, `Cn1ccc(-c2cc(C(=O)Nc3cnc(Cn4ccc(=O)[nH]c4=O)nc3-c3ccccc3)c(F)cc2C(F)(F)F)n1` [Example 226, N-(2-((2,4-dioxo-3,4-dihydropyrimidin-1(2H)-yl)methyl)-4-phenylpyrimidin-5-yl)-2-fluoro-5-(1-methyl-1H-pyrazol-3-yl)-4-(trifluoromethyl)benzamide] showed an IC50 of 0.35 nM. Against the preceding compound, the IC50 is about 31-fold lower.

The compound `Cn1ccc(-c2cc(C(=O)Nc3cc4c(nc3-c3ccccc3)CCN(CC(N)=O)C4)ccc2C(F)(F)F)n1` [Example 140, N-(6-(2-Amino-2-oxoethyl)-2-phenyl-5,6,7,8-tetrahydro-1,6-naphthyridin-3-yl)-3-(1-methyl-1H-pyrazol-3-yl)-4-(trifluoromethyl)benzamide] showed an IC50 of 1.8 nM.

`Cc1coc(-c2cc(C(=O)Nc3cnc(C)nc3-c3ccccc3)ccc2C(F)(F)F)n1` [Example 29, 3-(4-methyl-1,3-oxazol-2-yl)-N-(2-methyl-4-phenylpyrimidin-5-yl)-4-(trifluoromethyl)benzamide]: the IC50 came out at 4 nM.

`O=C(Nc1cc2c(nc1-c1ccccc1)CCNC2=O)c1cc(-c2ncccn2)c(C(F)(F)F)cc1F` [Example 139, 2-Fluoro-N-(5-oxo-2-phenyl-5,6,7,8-tetrahydro-1,6-naphthyridin-3-yl)-5-(pyrimidin-2-yl)-4-(trifluoromethyl)benzamide] gave an IC50 of 1.4 nM. Against the preceding compound, the IC50 is about 2.9-fold lower.

Consider `C[C@@H](O)C(=O)N1CCc2nc(-c3ccccc3)c(NC(=O)c3ccc(C(F)(F)F)c(-c4ccn(C)n4)c3)cc2C1` [Example 163, (R)-N-(6-(2-hydroxypropanoyl)-2-phenyl-5,6,7,8-tetrahydro-1,6-naphthyridin-3-yl)-3-(1-methyl-1H-pyrazol-3-yl)-4-(trifluoromethyl)benzamide], for which half-maximal inhibition (IC50) required 1.3 nM.

In turn, `O=C(NCc1cccnc1)c1cnc(-c2ccccc2)c(NC(=O)c2cc(-c3ncccn3)c(C(F)(F)F)cc2F)c1` [Example 92, 5-(2-fluoro-5-(pyrimidin-2-yl)-4-(trifluoromethyl)benzamido)-6-phenyl-N-(pyridin-3-ylmethyl)nicotinamide] returned an IC50 of 2.2 nM. Against the preceding compound, the IC50 is about 1.7-fold higher.

Consider `Cn1ccc(-c2cc(C(=O)Nc3cc4c(nc3-c3ccccc3)CCN(C(=O)CN)C4)ccc2C(F)(F)F)n1` [Example 156, N-(6-glycyl-2-phenyl-5,6,7,8-tetrahydro-1,6-naphthyridin-3-yl)-3-(1-methyl-1H-pyrazol-3-yl)-4-(trifluoromethyl)benzamide], for which the IC50 was determined as 1 nM.

Compound `Cn1ccc(-c2cc(C(=O)Nc3cnc(CC4NC(=O)NC4=O)nc3-c3ccccc3)ccc2C(F)(F)F)n1` (single isomer, unassigned) [Example 190, (R or S)—N-(2-(2,5-Dioxoimidazolidin-4-yl)methyl)-4-phenylpyrimidin-5-yl)-3-(1-methyl-1H-pyrazol-3-yl)-4-(trifluoromethyl)benzamide] showed an IC50 of 1.8 nM.

On to `CC(=O)Nc1cccc(-c2nc(C)ncc2NC(=O)c2cc(-c3ccn(C)n3)c(C(F)(F)F)cc2F)c1` [Example 133, N-(4-(3-acetamidophenyl)-2-methylpyrimidin-5-yl)-2-fluoro-5-(1-methyl-1H-pyrazol-3-yl)-4-(trifluoromethyl)benzamide], for which the 50% inhibitory concentration (IC50) is 4.6 nM.

Take `Cc1cc(-c2ccccc2)c(NC(=O)c2ccc(OC(F)(F)F)c(-c3ccn(C)n3)c2)cn1` [Example 3, 3-(1-Methyl-1H-pyrazol-3-yl)-N-(6-methyl-4-phenylpyridin-3-yl)-4-(trifluoromethoxy)benzamide]: the IC50 was 54 nM.

`NC(=O)c1ccc(-c2cnc(-c3ccccc3)c(NC(=O)c3cc(-c4cc[nH]n4)c(C(F)(F)F)cc3F)c2)cc1` [Example 165, N-(5-(4-carbamoylphenyl)-2-phenylpyridin-3-yl)-2-fluoro-5-(1H-pyrazol-3-yl)-4-(trifluoromethyl)benzamide]: half-maximal inhibition (IC50) was put at 2.3 nM. Compared with the last compound, the IC50 is about 23-fold lower.

`Cn1ccc(-c2cc(C(=O)Nc3cnc(CC(=O)O)nc3-c3ccccc3)c(F)cc2C(F)(F)F)n1` [Example 106, 2-(5-(2-fluoro-5-(1-methyl-1H-pyrazol-3-yl)-4-(trifluoromethyl)benzamido)-4-phenylpyrimidin-2-yl)acetic acid] had an IC50 of 2 nM.

Regarding `CN(C)C(=O)c1cnc(-c2ccccc2)c(NC(=O)c2cc(-c3ccn(C)n3)c(C(F)(F)F)cc2F)c1` [Example 82, 5-(2-Fluoro-5-(1-methyl-1H-pyrazol-3-yl)-4-(trifluoromethyl)benzamido)-N,N-dimethyl-6-phenylnicotinamide], half-maximal inhibition (IC50) required 11 nM.

Turning to `Cn1ccc(-c2cc(C(=O)Nc3cnc(C(C)(C)C(=O)O)nc3-c3ccccc3)c(F)cc2C(F)(F)F)n1` [Example 121, 2-(5-(2-fluoro-5-(1-methyl-1H-pyrazol-3-yl)-4-(trifluoromethyl)benzamido)-4-phenylpyrimidin-2-yl)-2-methylpropanoic acid], the IC50 amounted to 8 nM.

In the case of `Cn1ccc(-c2cc(C(=O)Nc3ccc(CNC(=O)C(O)CO)nc3-c3ccccc3)c(F)cc2C(F)(F)F)n1` (single isomer, unassigned) [Example 61, (S or R)-N-(6-((2,3-dihydroxypropanamido)methyl)-2-phenylpyridin-3-yl)-2-fluoro-5-(1-methyl-1H-pyrazol-3-yl)-4-(trifluoromethyl)benzamide], it took 0.64 nM to reach half-maximal inhibition (IC50).

Consider `Cn1ccc(-c2cc(C(=O)Nc3cnc(CN4CCCCC4=O)nc3-c3ccccc3)c(F)cc2C(F)(F)F)n1` [Example 220, 2-fluoro-5-(1-methyl-1H-pyrazol-3-yl)-N-(2-((2-oxopiperidin-1-yl)methyl)-4-phenylpyrimidin-5-yl)-4-(trifluoromethyl)benzamide], for which the IC50 came out at 1 nM.

Compound `C[C@@H](O)C(=O)NCc1cnc(NC(=O)c2cc(-c3ccn(C)n3)c(C(F)(F)F)cc2F)c(-c2ccccc2)n1` [Example 71, (R)-2-fluoro-N-(5-((2-hydroxypropanamido)methyl)-3-phenylpyrazin-2-yl)-5-(1-methyl-1H-pyrazol-3-yl)-4-(trifluoromethyl)benzamide] registered an IC50 of 3.6 nM.
